Measured values taken from PubChem BioAssay (NCI).
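Cells were grown in 96-well plates and exposed to each compound for 48 hours at five concentrations; endpoints were interpolated linearly between bracketing concentrations, or set to the highest concentration if not reached. Abbreviation: GI50, concentration required for 50% inhibition of growth. TGI is the concentration that stops growth completely.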 *1 amine or outer side, *2 acyl side, *3 side chain or, on linkers, in order; H or OH if unused. Where a SMILES comes first, the peptide text is derived from it. Bridges are numbered along the chain shown (N, C = ends). [ ]: non-standard residue; d: D form. The star is where a group is joined. X38 = CC[C@H](C)[C@@H](N[*:1])[C@@H](O)CC(=O)[*:2]; NMeY = CN[C@@H](Cc1ccc(O)cc1)C(=O)O; dNMeL = CN[C@H](CC(C)C)C(=O)O; Hiv = CC(C)[C@H](O)C(=O)O; Pyruvoyl = CC(=O)C(=O)*

Legend:
Test in all cases: DTP human tumour cell line panel, 48 h
A498 renal = system: A498 renal
MOLT-4 leukemia = system: MOLT-4 leukemia
NCI-H460 lung = system: NCI-H460 lung
PC-3 prostate = system: PC-3 prostate
SN12C renal = system: SN12C renal
SW-620 colon = system: SW-620 colon
UACC-62 melanoma = system: UACC-62 melanoma
NCI-H522 lung = system: NCI-H522 lung
SF-268 CNS = system: SF-268 CNS
HS 578T breast = system: HS 578T breast

Compound | TGI (A498 renal) | TGI (MOLT-4 leukemia) | TGI (NCI-H460 lung) | TGI (PC-3 prostate) | TGI (SN12C renal) | TGI (SW-620 colon) | TGI (UACC-62 melanoma) | TGI (NCI-H522 lung) | TGI (SF-268 CNS) | GI50 (MOLT-4 leukemia) | GI50 (NCI-H460 lung) | GI50 (PC-3 prostate) | GI50 (SF-268 CNS) | GI50 (SN12C renal) | GI50 (SW-620 colon) | GI50 (UACC-62 melanoma) | TGI (HS 578T breast) | GI50 (A498 renal) | GI50 (HS 578T breast) | GI50 (NCI-H522 lung)
CC(C)c1ccccc1SC1CC(=O)CC(Sc2ccccc2C(C)C)C12O[C@H](c1ccccc1)[C@@H](c1ccccc1)O2 (some centres not stated) | > 100 µM | > 100 µM | > 100 µM | > 100 µM | 47.9 µM | > 100 µM | 96.4 µM | – | – | – | – | – | – | – | – | – | – | – | – | –
O=C(c1ccc(Cl)cc1Cl)N(C(=O)N1CCC(c2ccccc2)CC1)c1ccccc1 | > 100 µM | 75 µM | > 100 µM | > 100 µM | > 100 µM | > 100 µM | > 100 µM | – | – | – | – | – | – | – | – | – | – | – | – | –
CC#COP(=O)(OCC)OCC | > 100 µM | > 100 µM | > 100 µM | – | > 100 µM | > 100 µM | > 100 µM | > 100 µM | > 100 µM | – | – | – | – | – | – | – | – | – | – | –
Cc1c(C#N)c2nnn(C)c(=O)n2c1-c1ccccc1 | > 100 µM | – | > 100 µM | > 100 µM | > 100 µM | > 100 µM | > 100 µM | – | > 100 µM | – | – | – | – | – | – | – | – | – | – | –
NS(=O)(=O)c1cc2c(cc1Cl)NC(C(=O)c1cc(=O)c3ccc(O)cc3o1)=NS2(=O)=O | > 100 µM | > 100 µM | > 100 µM | – | > 100 µM | > 100 µM | > 100 µM | > 100 µM | > 100 µM | – | – | – | – | – | – | – | – | – | – | –
N#CC(C#N)=CN1CCN(C(=O)c2ccco2)C1=S | – | > 100 µM | > 100 µM | > 100 µM | 16.5 µM | > 100 µM | 25.4 µM | – | 89.4 µM | 5.22 µM | 3.29 µM | 17.3 µM | 31.4 µM | 3.12 µM | 5.62 µM | 8.81 µM | – | – | – | –
COc1cc(S(=O)(=O)Nc2ccc(-c3csc(N4C(=O)CSC4c4cccs4)n3)cc2)ccc1Cl (configuration not stated) | > 100 µM | > 100 µM | 91 µM | > 100 µM | 73.7 µM | 68.5 µM | – | 33.9 µM | 40.5 µM | – | – | – | – | – | – | – | 78.3 µM | – | – | –
COc1cc2c(/C=C3/C(=O)Nc4ccc(Cl)cc43)c(Cl)n(Cc3ccccc3)c2cc1C | 5.72 µM | 5.02 µM | > 100 µM | 22.2 µM | 5.24 µM | > 100 µM | 10.3 µM | – | > 100 µM | – | – | – | – | – | – | – | > 100 µM | – | – | –
O=c1c2cc(S(=O)(=O)Nc3ccccc3Cl)ccc2ncn1NS(=O)(=O)c1ccc(Br)cc1 | – | > 37.5 µM | > 37.5 µM | > 37.5 µM | > 37.5 µM | > 37.5 µM | > 37.5 µM | > 37.5 µM | > 37.5 µM | – | – | – | – | – | – | – | > 37.5 µM | – | – | –
NC(=O)c1cc2ccccc2oc1=Nc1ccccc1 | > 100 µM | > 100 µM | > 100 µM | > 100 µM | > 100 µM | > 100 µM | > 100 µM | – | > 100 µM | – | – | – | – | – | – | – | > 100 µM | – | – | –
COc1ccccc1C1CC(=O)CC(c2ccccc2OC)C12C(=O)NC(=S)NC2=O (configuration not stated) | – | 95.8 µM | > 100 µM | > 100 µM | > 100 µM | > 100 µM | > 100 µM | > 100 µM | > 100 µM | – | – | – | – | – | – | – | – | – | – | –
CCOC(=O)NC(C(F)(F)F)(C(F)(F)F)P(=O)(OC(C)C)OC(C)C | – | > 100 µM | > 100 µM | > 100 µM | > 100 µM | > 100 µM | > 100 µM | – | > 100 µM | – | – | – | – | – | – | – | > 100 µM | – | – | –
COc1ccc2c(c1)CC[C@@H]1[C@@H]2CC[C@]2(C)C(=O)C3(CCCCC3)C[C@@H]12 | > 100 µM | > 100 µM | – | > 100 µM | > 100 µM | > 100 µM | > 100 µM | > 100 µM | – | > 100 µM | – | > 100 µM | – | > 100 µM | > 100 µM | > 100 µM | > 100 µM | > 100 µM | 88.1 µM | > 100 µM
C=CCONC(=O)c1ccc(Cl)cc1 | > 100 µM | > 100 µM | > 100 µM | – | > 100 µM | > 100 µM | > 100 µM | > 100 µM | > 100 µM | – | – | – | – | – | – | – | – | – | – | –
CC[C@H](C)[C@H]1NC(=O)[C@@H](NC(=O)[C@@H](CC(C)C)N(C)C(=O)[C@@H]2CCCN2C(=O)C(C)=O)[C@@H](C)OC(=O)[C@H](Cc2ccc(OC)cc2)N(C)C(=O)[C@@H]2CCCN2C(=O)[C@H](CC(C)C)NC(=O)[C@H](C(C)C)OC(=O)C[C@@H]1O (Pyruvoyl-P[dNMeL]T[X38][Hiv]LP[NMeY](Me); ester 3-C) | 0.0904 µM | 0.0373 µM | 0.0321 µM | 0.261 µM | 0.0476 µM | – | 0.0299 µM | 0.179 µM | 0.0983 µM | – | – | – | – | – | – | – | 0.283 µM | – | – | –
COc1cc(/C=C\c2ccccn2)cc(OC)c1OC | > 100 µM | > 100 µM | > 100 µM | – | > 100 µM | > 100 µM | > 100 µM | > 100 µM | > 100 µM | – | – | – | – | – | – | – | – | – | – | –
CC1=NC(=O)C(C)(c2ccccc2)N1CCc1ccccc1 (configuration not stated) | > 100 µM | 94.7 µM | – | > 100 µM | > 100 µM | > 100 µM | > 100 µM | > 100 µM | > 100 µM | – | – | – | – | – | – | – | > 100 µM | – | – | –
N#CC1(C#N)C2CCCCC23OC(=N)C1(C#N)C(c1ccco1)O3 (configuration not stated) | 57.7 µM | > 100 µM | > 100 µM | 64.6 µM | 29.2 µM | 52.3 µM | 36.4 µM | – | 67.4 µM | – | – | – | – | – | – | – | 70.4 µM | – | – | –
NC(=O)OCC(COc1ccc(Cl)cc1)OC(=O)c1ccccc1Cl (configuration not stated) | > 100 µM | 56.6 µM | 30.9 µM | – | 34 µM | 36.4 µM | 31.4 µM | 31.9 µM | 79.1 µM | – | – | – | – | – | – | – | – | – | – | –
c1ccc(Nc2nnc(CSc3nc(-c4ccccc4)c(-c4ccccc4)[nH]3)s2)cc1 | 49.1 µM | 29.8 µM | 36.3 µM | – | 35 µM | – | – | 34.9 µM | 46.2 µM | – | – | – | – | – | – | – | – | – | – | –
O=C1NC(N2CCOCC2)=N/C1=C\c1cccs1 | – | > 100 µM | – | > 100 µM | > 100 µM | > 100 µM | > 100 µM | > 100 µM | > 100 µM | – | – | – | – | – | – | – | > 100 µM | – | – | –
CCOC(=O)CSc1ccnc(=O)[nH]1 | > 100 µM | > 100 µM | > 100 µM | – | > 100 µM | > 100 µM | > 100 µM | > 100 µM | > 100 µM | – | – | – | – | – | – | – | – | – | – | –
